One data set relates to TLR 2. As to the kind of experiment: TLR 2 transcription ratio, AD patient / control PBMCs (qPCR). The data set is classed as cell-based, human. As to conditions: Aβ stimulation. A digest of the protocol: (§1)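 Via qPCR on cultured human monocyte cDNA, curcuminoid-treated versus vehicle, with Aβ stimulation, in AD patient and control cells. SYBR-Green triplicate reactions; Ct averaged, normalised to control genes, fold change by 2^−ΔΔCt. EC50 taken from curcumin concentration-response data.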

For data set [1], the system named is human monocytic cell line U-937. As to the kind of experiment: Protection of U-937 cells against oxidative stress (H2O2, Trypan-blue viability). The data set is classed as cell-based. Here is the method: Protective effect of curcumin against oxidative stress. We tested the potential of curcumin to protect cells in vitro under conditions of oxidative stress. Natural curcumin has been reported to have antioxidant activity and to scavenge free radicals, but reports of the direct effects of curcumin or analogs upon cell viability under conditions of oxidative stress are limited. Viability of the human monocytic cell line U-937 was evaluated in the presence of H2O2, plus varying concentrations of natural BDC (range 0-10 nM). We observed that these cells are more sensitive to oxidative stress than are the neuroblastoma SHSY5Y cells, and so reduced concentrations of H2O2 were used for this experiment. […] However, concentrations of BDC between 0.1-10 nM (i.e. similar concentration range inducing maximal gene expression increases +Aβ in these cells) increased 2-hour cell survival rates up to 90%. […] Assays such as Trypan-blue staining, or other biochemical measures of cell toxicity/survival (e.g. ATP levels) may be useful for evaluating curcumin analogs for their neuroprotective effects against oxidative stress and as candidate AD or ALS drugs.

Another data set relates to TLR 9. As to the kind of experiment: TLR 9 transcription ratio, AD patient / control PBMCs (qPCR). The data set is classed as cell-based, human. As to conditions: Aβ stimulation. The protocol: (§2) qPCR reactions of cultured monocyte cDNAs. One μL total cellular cDNA per reaction is used in triplicate reactions for each test gene, and for each culture treatment. SYBR-Green reactions were run on a Continuous Fluorescence real-time thermocycler and analyzed. Cycle threshold (Ct) values are recorded for each replicate reaction, and are then averaged and normalized against mean Ct values from one or more control genes. Fold-expression differences relative to untreated cells are determined using the 2^−ΔΔCt method as previously described. Data from the curcumin concentration range are plotted in order to determine EC50 values (concentrations producing one-half maximal stimulant activity), which are used for comparisons of potency between different compounds. Data are also evaluated for each gene with regard to sensitivity, maximally effective concentration of curcuminoid, response to Aβ, and overall magnitude of fold-expression changes.
(§3) MGAT3 and/or TLR transcription were tested by qPCR in human monocyte cells treated with curcuminoids and compared the results to those treated with vehicle (Table 7). As discussed above, activation or up-regulation of macrophage MGAT3 or TLR's results in many functional outcomes, including the enhancement of […] and removal of Aβ, increased apoptosis, secretion of inflammatory cytokines, and other anti-AD antimicrobial activities. […]

In the next data set the test system is TLR3. Briefly: TLR3 gene expression by qPCR in U-937 human monocytic cells treated with curcumins plus Aβ. The data set is classed as cell-based. The protocol:
(§4) Cell culture conditions for monocytic cell lines. Human and mouse monocyte cell lines are grown in RPMI-1640 medium with 10% fetal bovine serum (FBS), plus glutamine and pen/strep. For treatment with compounds (curcuminoids+/−Aβ), replicate sets of 0.5-1.0 mL cultures containing 1-2×10^6 cells are set up in the wells of 48-well tissue culture plates. Both replicate sets have at least one control well receiving no added curcuminoid to provide baseline expression controls for untreated, and Aβ-only treated cells. Remaining wells receive curcuminoid in a range of 10-fold serial dilutions in DMSO, typically from […] Cultures are incubated for 20-24 hours (“overnight”) at 37° C. in atmosphere with 5% CO2. After one overnight, to one of replicate sets of cultures is added Aβ (1-42) peptide to a final concentration of 5 μg/mL.
(§5) RNA isolation and cDNA synthesis. After the first overnight incubation in the presence of curcuminoid, cells from one replicate set of wells are collected by centifugation. RNAs are extracted from pelleted cells using miniprep column kits following manufacturer's protocol for animal cells. […] of total cellular RNA from each well is quantitated using a Nanodrop spectrophotometer, and first-strand total cDNA is prepared from 0.3-1.0 μg RNA by random-hexamer priming. Following the second 20 hr. incubation in the presence of Aβ, RNA extractions and cDNA synthesis are similarly performed.
(§6) Assay development. Gene-specific mRNA levels are determined using a real-time thermocycler, and by normalizing to expression of one or more control genes. Assays for quantifying mRNA levels are based on gene sequences reported in NCBI Genbank. PCR oligonucleotide primers are selected spanning introns to minimize the opportunity for amplication from any contaminating genomic DNA in the RNA preps. Oligonucleotides are typically tested and used at a concentration of 200 nM in qPCR reactions containing SYBR dye. Control reactions include template from cDNA synthesis reactions either + or − reverse transcriptase (RT), as well as no-template controls (ntc). All reactions are performed in triplicate. Reactions are typically run with 40 cycles of 95° C. (10 sec) and 58° C. (30 sec). Melt curves based on incremental 0.5° C. increases are determined for new assays to test for uniformity of amplified products. Reaction conditions are modified as needed depending on initial test results. ‘Working’ assays are selected based on clear RNA-dependent amplification and absence of product in ‘ntc’ reactions. The following assay primers are used: […]
as §2
(§7) Data showing in vitro up-regulation of genes associated with Aβ phagocytosis in response to curcumins. Natural curcumins and synthetic analogs were tested in U-937 human monocyte cells in vitro for their ability to modulate expression of the genes MGAT3 and TLRs −2, −3, and −4. […]

For another data set, the system named is TLR 1. As to the kind of experiment: TLR 1 transcription ratio, AD patient / control PBMCs (qPCR). The data set is classed as cell-based, human. As to conditions: Aβ stimulation. Here is the method:
as §2, §3
For orientation: Real-time PCR tracks product formation cycle by cycle.

Another data set deals with TLR 3. As to the kind of experiment: TLR 3 transcription ratio, AD patient / control PBMCs (qPCR). The data set is classed as cell-based, human. The settings on record: Aβ stimulation. A digest of the protocol: as §1
For another data set, the system named is VDR. As to the kind of experiment: VDR gene expression by qPCR in U-937 human monocytic cells treated with curcumins plus Aβ. The data set is classed as cell-based. Here is the method: as §4, §5, §6, §2, §7
The next data set concerns TLR 8. As to the kind of experiment: TLR 8 transcription ratio, AD patient / control PBMCs (qPCR). The data set is classed as cell-based, human. As to conditions: Aβ stimulation. The protocol: as §2, §3
Another data set concerns MGAT3. Briefly: MGAT3 transcription ratio, AD patient / control PBMCs (qPCR). The data set is classed as cell-based, human. The settings on record: Aβ stimulation. A digest of the protocol:
as §1

Data set [2] can be described thus: Metabolic stability in human S9 fraction. The data set is classed as in vitro ADME. The settings on record: read-out: Half life, t1/2 S9.
A short description of data set [3]: Metabolic stability in human liver microsomes. The data set is classed as in vitro ADME. The settings on record: human, read-out: Half life, t1/2 HLM. On the technique in general: Liver microsomes are a subcellular fraction often used to study metabolism.
Another data set can be described thus: Average permeability. The data set is classed as in vitro ADME. As to conditions: not told.
The nature of a further data set: Average solubility. The data set is classed as physicochemical.
[4] abbreviates: human monocytic cells (U-937), curcumin plus Aβ.

For orientation: IC50 means the concentration that inhibits the measured activity by half. The term Papp denotes a coefficient for how fast a substance crosses the barrier.

Where only a bound is given, the exact number is not on record here.

Take `O=C(/C=C(O)/C=C/c1ccc(O)cc1)/C=C/c1ccc(O)cc1` [Compound 1, 5-Hydroxy-1,7-bis-(4-hydroxy-phenyl)-hepta-1,4,6-trien-3-one, reference compound]: the “Relative ratio of TLR 2 transcription in AD patient / control PBMC's” value with TLR 2 is “TLR 2 + ((+) indicates a ratio of 1.0-1.5)”. Further, the “2-hour cell survival rate” value in data set [1] (U-937, 100 μM H2O2, BDC 0.1-10 nM, Trypan-blue) was “up to 90%”. Moreover, the “Cell viability above 0.1-10 nM concentration range” value in data set [1] (U-937, in combination with H2O2) is “decreased”. Moreover, the concentration for half-maximal inhibition (IC50) in “Anti-oxidant activity” is greater than 250 µM. In addition, the “Relative ratio of TLR 9 transcription in AD patient / control PBMC's” value in the data set with TLR 9 is “TLR 9 ++ ((++) indicates a ratio of 1.5-2.0)”. Also, the “TLR3 expression response (in words)” value in the data set with TLR3 (U-937, plus Aβ (FIG. 3)) is “limited response”. Moreover, the “Relative gene expression TLR3, increased expression relative to control cells” value in the data set with TLR3 (setting [4]) is “+ ((+) <20-fold)”. The “Relative ratio of TLR 1 transcription in AD patient / control PBMC's” value in the data set with TLR 1 is listed as “TLR 1 ++ ((++) indicates a ratio of 1.5-2.0)”. The “Relative ratio of TLR 3 transcription in AD patient / control PBMC's” value with TLR 3 is reported as “TLR 3 ++ ((++) indicates a ratio of 1.5-2.0)”. Besides, in the data set with VDR (human monocytes, plus Aβ), the “VDR normalized expression response (in words)” value is “modest increases”. Moreover, in the data set with VDR (setting [4]), the “Relative gene expression VDR, increased expression relative to control cells” value is “+ ((+) <20-fold)”. For the same molecule, the “Relative ratio of TLR 8 transcription in AD patient / control PBMC's” value in the data set on TLR 8 is on record as “TLR 8 + ((+) indicates a ratio of 1.0-1.5)”. The “Relative ratio of MGAT3 transcription in AD patient / control PBMC's” value in the data set on MGAT3 is given as “++ ((++) indicates a ratio of 1.5-2.0)”. For the same molecule, the figures for the half-life in data set [2] and in data set [3] were 4 min and 16.4 min, respectively. This molecule also showed a Papp in the data set “Average permeability” of 305 ± 9 ×10⁻⁶ cm/s. Moreover, the “Avg. Solubility” value in the data set “Average solubility” was “insol”.

For the origin of these results see US20120040976A1, “SMALL MOLECULE IMMUNOMODULATORS FOR ALZHEIMER'S DISEASE” (HUMAN BIOMOLECULAR RESEARCH INSTITUTE, priority 2008, published 2012).
